Read-outs that look alike come from different tables or passages of the source.
Key:
[1] = tested on: p53 in various tumor cell types; set-up: method as in PMID 17653574; conditions: cited from earlier work
myeloma cells = tested on: myeloma cells; set-up: method as in PMID 17653574, PMID 23380051; conditions: cited from earlier work
Jurkat cells = tested on: Jurkat cells; set-up: method as in Hiraoka et al. 50; conditions: ref Hiraoka et al. 50; cited from earlier work
[2] = plasma, intravenous administration, cited from earlier work
[3] = tested on: HaCaT cells (spontaneously immortalized human keratinocytes); experiment: Kinetic toxicity assay (crystal violet) on HaCaT cells; type: cell-based; conditions: kinetic assay, 0.1, 1 and 10 μM, 5 days
Description: Depending on the characteristics of the cells, two different assays were performed. For adherently growing cells (HaCaT, HT-29, NCI-H460, SK-MEL-3, MG-63, Capan-1), cytotoxic and cytocidal effects were determined in the crystal violet assay, whereas for loosely adherent cells (LNCaP, SK-ES-1) and cells growing in suspension (HEL 92.1.7, Jurkat, U-937) the MTT-assay was used with minor modifications. In brief, 1.5 · 10^3 (HaCaT, HT-29, NCI-H460, SK-MEL-3, MG-63, Capan-1) or 5 · 10^3 (Jurkat, U-937, HEL92.1.7, LNCaP, SK-ES-1) cells per well were seeded into flat-bottom 96-well plates (Sarstedt, Nümbrecht, Germany). […] In case of the vehicle control and test compounds, the final DMSO concentration amounted to 0.1%. Absorbance was measured at 580 nm in a 96-well plate reader (GENios pro microplate reader, Tecan, Salzburg, Austria). Effects were quantified as previously described for both assays.

OCT1 = biological target: T1, OCT1 (Homo sapiens, UniProt O15245); experiment: Confocal laser scanning microscopy of ASP+ uptake, HEK-OCT1; type: cell-based; conditions: compound 5 15 μM; TPA 200 μM; ASP+ 1 μM
T1 construct: containing the full length SLC22A1 cDNA (NM_003057) encoding the human OCT1 protein; expressed in transfected cells
T1 sequence (O15245 1-554): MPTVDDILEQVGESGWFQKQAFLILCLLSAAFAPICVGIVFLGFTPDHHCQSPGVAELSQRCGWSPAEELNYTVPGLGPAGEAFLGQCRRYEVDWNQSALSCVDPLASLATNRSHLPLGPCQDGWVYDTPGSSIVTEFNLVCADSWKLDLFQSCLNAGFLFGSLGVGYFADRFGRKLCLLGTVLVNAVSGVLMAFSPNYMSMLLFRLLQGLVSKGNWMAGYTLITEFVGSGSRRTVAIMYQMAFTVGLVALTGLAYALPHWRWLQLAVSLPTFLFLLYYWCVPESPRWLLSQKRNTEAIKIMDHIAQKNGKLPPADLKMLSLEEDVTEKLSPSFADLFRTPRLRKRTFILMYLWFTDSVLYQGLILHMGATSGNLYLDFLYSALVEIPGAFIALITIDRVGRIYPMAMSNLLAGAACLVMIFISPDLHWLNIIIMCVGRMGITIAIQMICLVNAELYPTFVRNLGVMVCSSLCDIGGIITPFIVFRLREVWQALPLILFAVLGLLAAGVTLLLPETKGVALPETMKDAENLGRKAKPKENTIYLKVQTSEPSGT
Description: (§1) HEK-Co, HEK-OCT1 and HEK-OCT3 cells were seeded into 8-well μ-Slides (Ibidi, Munich, Germany) (2 · 10^4 cells/well) and allowed to attach for 48 hours. Prior to the staining procedure, the medium was replaced by PBS and the DNA probe Draq5 (5 μM) (Biostatus, Shepshed, UK) was added to each well. […] Subsequently, ASP^+ was added to reach a concentration of 1 μM, and the cells were incubated for 5 minutes in the dark. Imaging was performed with an Axiovert 200 M confocal microscope coupled to a Zeiss LSM 510 scanning device (Carl Zeiss, Oberkochen, Germany) using a Plan-Apochromat 63x/1.40 oil immersion objective. Draq5 was excited at 633 nm and fluorescence was detected using a 650 nm long-pass filter, ASP^+ was excited at 488 nm and detected using a 565/35 nm band-pass filter.

OCT3 = biological target: T2, OCT3 (Homo sapiens, UniProt O75751); experiment: Confocal laser scanning microscopy of ASP+ uptake, HEK-OCT3; type: cell-based; conditions: compound 5 15 μM; TPA 200 μM; ASP+ 1 μM
T2 construct: expressed in transfected cells; host or cells: HEK293 (HEK-OCT3)
T2 sequence (O75751 1-556): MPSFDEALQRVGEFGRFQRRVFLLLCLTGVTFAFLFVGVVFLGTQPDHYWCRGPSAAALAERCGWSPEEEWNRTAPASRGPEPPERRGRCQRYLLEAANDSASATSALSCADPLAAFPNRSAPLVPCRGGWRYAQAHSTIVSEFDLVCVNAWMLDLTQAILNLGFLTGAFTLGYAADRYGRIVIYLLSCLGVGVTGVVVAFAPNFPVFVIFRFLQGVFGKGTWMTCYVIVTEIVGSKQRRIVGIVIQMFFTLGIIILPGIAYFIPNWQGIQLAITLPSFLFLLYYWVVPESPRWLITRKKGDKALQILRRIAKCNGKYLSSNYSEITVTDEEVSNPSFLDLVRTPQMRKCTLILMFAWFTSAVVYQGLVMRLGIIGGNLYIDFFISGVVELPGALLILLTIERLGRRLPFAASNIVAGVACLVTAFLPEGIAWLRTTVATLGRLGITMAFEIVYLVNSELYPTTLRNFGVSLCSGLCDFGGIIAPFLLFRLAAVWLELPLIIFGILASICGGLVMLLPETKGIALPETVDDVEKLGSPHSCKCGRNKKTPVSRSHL
Description: as §1

Cn1c(CCCC(=O)O)nc2cc(N(CCCl)CCCl)ccc21 [Compound 1, bendamustine, reference compound]
concentration required for significant induction of p53 expression [1]: ≥ 80 µM
IC50 (myeloma cells): ~100 µM
IC50 (Jurkat cells): ~50 µM
Cmax ([2]; converted, ref 51): ~17 µM
Cmax ([2]; converted, ref 52): ~31 µM
Cmax ([2]; ref 51): 6000 ng/mL
Cmax ([2]; ref 52): 11000 ng/mL

Cn1c(CCCC(=O)OCCN2CCOCC2)nc2cc(N(CCCl)CCCl)ccc21 [Compound 4]
toxicity on HaCaT cells compared to tumor cells [3]: preferential toxicity against tumor cells

Cn1c(CCCC(=O)OCCN2CCCC2)nc2cc(N(CCCl)CCCl)ccc21 [Compound 5]
toxicity on HaCaT cells compared to tumor cells [3]: preferential toxicity against tumor cells
effect on OCT1 activity (ASP+ uptake, imaging) (OCT1): inhibited
effect on OCT3 activity (ASP+ uptake, imaging) (OCT3): inhibited
